Measurements as given in ChEMBL document CHEMBL5726876, “NHE3-binding compounds and methods for inhibiting phosphate transport” (2019).
Values joined by “and” are separate entries in the source; they are usually repeats but may differ in a detail not shown here. Equal entries are not always repeated.

Assay: Cell-based activity under Prompt Conditions: Cell-based activity under Prompt Conditions. Rat or human NHE3-mediated Na+-dependent H+ antiport was measured using a modification of the pH sensitive dye method originally reported by Paradiso (PNAS USA. 81:7436-7440, 1984). Opossum kidney (OK) cells were obtained from the ATCC and propagated per their instructions. The rat NHE3 gene (GenBank M85300) or the human NHE3 gene (GenBank NM_004174.1) was introduced into OK cells via electroporation, and cells were seeded into 96 well plates and grown overnight. Medium was aspirated from the wells, cells were washed twice with NaCl-HEPES buffer (100 mM NaCl, 50 mM HEPES, 10 mM glucose, 5 mM KCl, 2 mM CaCl2, 1 mM MgCl2, pH 7.4), then incubated for 30 min at room temperature with NH4Cl-HEPES buffer (20 mM NH4Cl, 80 mM NaCl, 50 mM HEPES, 5 mM KCl, 2 mM CaCl2, 1 mM MgCl2, pH 7.4) containing 5 μM bis(acetoxymethyl) 3,3′-(3′,6′-bis(acetoxymethoxy)-5-((acetoxymethoxy)carbonyl)-3-oxo-3H-spiro[isobenzofuran-1,9′-xanthene]-2′,7′-diyl)dipropanoate (BCECF-AM).Cells were washed twice with Ammonium free, Na+-free HEPES (100 mM choline, 50 mM HEPES, 10 mM glucose, 5 mM KCl, 2 mM CaCl2, 1 mM MgCl2, pH 7.4) and incubated in the same buffer for 10 minutes at room temperature to lower intracellular pH. […] Initial rates were plotted as the average 2 or more replicates, and pIC50 values were estimated using GraphPad Prism.

Row | SMILES | IC50
1 | CN1Cc2c(Cl)cc(Cl)cc2[C@H](c2cccc(S(=O)(=O)NCCOCCOCCOCCn3cc(CN(Cc4cn(CCOCCOCCOCCNS(=O)(=O)c5cccc([C@@H]6CN(C)Cc7c(Cl)cc(Cl)cc76)c5)nn4)Cc4cnnn4CCOCCOCCOCCNS(=O)(=O)c4cccc([C@@H]5CN(C)Cc6c(Cl)cc(Cl)cc65)c4)nn3)c2)C1 | 5010 nM
2 | CN1Cc2c(Cl)cc(Cl)cc2[C@H](c2cccc(S(=O)(=O)NCCOCCOCCOCCNC(=O)CC(O)(CC(=O)NCCOCCOCCOCCNS(=O)(=O)c3cccc([C@@H]4CN(C)Cc5c(Cl)cc(Cl)cc54)c3)C(=O)NCCOCCOCCOCCNS(=O)(=O)c3cccc([C@@H]4CN(C)Cc5c(Cl)cc(Cl)cc54)c3)c2)C1 | 100 nM
3 | NCCOCCOCCNS(=O)(=O)c1ccc(O[C@H]2c3ccccc3C[C@@H]2N2CCCCC2)cc1 | 447 nM
4 | CN1Cc2c(Cl)cc(Cl)cc2[C@H](c2cccc(S(=O)(=O)NCCOCCOCCOCCNC(=O)CN3CCN(CC(=O)NCCOCCOCCOCCNS(=O)(=O)c4cccc([C@@H]5CN(C)Cc6c(Cl)cc(Cl)cc65)c4)CCN(CC(=O)NCCOCCOCCOCCNS(=O)(=O)c4cccc([C@@H]5CN(C)Cc6c(Cl)cc(Cl)cc65)c4)CCN(CC(=O)NCCOCCOCCOCCNS(=O)(=O)c4cccc([C@@H]5CN(C)Cc6c(Cl)cc(Cl)cc65)c4)CC3)c2)C1 | 501 nM
5 | CN1Cc2c(Cl)cc(Cl)cc2[C@H](c2cccc(S(=O)(=O)NCCOCCOCCOCCNC(=O)CN(CC(=O)NCCOCCOCCOCCNS(=O)(=O)c3cccc([C@@H]4CN(C)Cc5c(Cl)cc(Cl)cc54)c3)CC(=O)NCCOCCOCCOCCNS(=O)(=O)c3cccc([C@@H]4CN(C)Cc5c(Cl)cc(Cl)cc54)c3)c2)C1 | 79.4 nM
6 | CN1Cc2c(Cl)cc(Cl)cc2[C@H](c2cccc(S(=O)(=O)NCCOCCOCCNC(=O)CN(CC(=O)NCCOCCOCCNS(=O)(=O)c3cccc([C@@H]4CN(C)Cc5c(Cl)cc(Cl)cc54)c3)CC(=O)NCCOCCOCCNS(=O)(=O)c3cccc([C@@H]4CN(C)Cc5c(Cl)cc(Cl)cc54)c3)c2)C1 | 501 nM
7 | C/C(=C\c1cc(F)c(Oc2ccc(S(=O)(=O)NCCOCCOCCOCCNC(=O)N3CCN(C(=O)NCCOCCOCCOCCNS(=O)(=O)c4ccc(Oc5c(F)cc(/C=C(\C)C(=O)N=C(N)N)cc5F)cc4)CC3)cc2)c(F)c1)C(=O)N=C(N)N | 20 nM
8 | O=C(NCCCCNC(=O)NCCOCCOCCNS(=O)(=O)c1ccc(O[C@H]2c3cc(Cl)cc(Cl)c3C[C@@H]2N2CCCCC2)cc1)NCCOCCOCCNS(=O)(=O)c1ccc(O[C@H]2c3cc(Cl)cc(Cl)c3C[C@@H]2N2CCCCC2)cc1 | < 10000 nM
9 | CN(CC(=O)NCCOCCOCCNS(=O)(=O)c1ccc(O[C@H]2c3ccccc3C[C@@H]2N2CCCCC2)cc1)CC(=O)NCCOCCOCCNS(=O)(=O)c1ccc(O[C@H]2c3ccccc3C[C@@H]2N2CCCCC2)cc1 | 35.5 nM
10 | N=C(N)Nc1nc(-c2ccc(OCCOCCOCCOCCN)cc2)c2cc(Cl)ccc2n1 | 31.6 nM
11 | C/C(=C\c1cc(F)c(Oc2ccc(S(=O)(=O)NCCOCCOCCOCCNC(=O)N(C)CCCCN(C)C(=O)NCCOCCOCCOCCNS(=O)(=O)c3ccc(Oc4c(F)cc(/C=C(\C)C(=O)N=C(N)N)cc4F)cc3)cc2)c(F)c1)C(=O)N=C(N)N | 15.8 nM
12 | CN1Cc2c(Cl)cc(Cl)cc2[C@H](c2cccc(S(=O)(=O)NCCOCCOCCOCCNC(=O)c3cc(C(=O)NCCOCCOCCOCCNS(=O)(=O)c4cccc([C@@H]5CN(C)Cc6c(Cl)cc(Cl)cc65)c4)cc(C(=O)NCCOCCOCCOCCNS(=O)(=O)c4cccc([C@@H]5CN(C)Cc6c(Cl)cc(Cl)cc65)c4)c3)c2)C1 | 126 nM
13 | CN1Cc2c(Cl)cc(Cl)cc2[C@H](c2cccc(S(=O)(=O)NCCOCCOCCOCCNC(=O)CN3CCN(c4nc(N5CCN(CC(=O)NCCOCCOCCOCCNS(=O)(=O)c6cccc([C@@H]7CN(C)Cc8c(Cl)cc(Cl)cc87)c6)CC5)nc(N5CCN(CC(=O)NCCOCCOCCOCCNS(=O)(=O)c6cccc([C@@H]7CN(C)Cc8c(Cl)cc(Cl)cc87)c6)CC5)n4)CC3)c2)C1 | 251 nM
14 | CN1Cc2c(Cl)cc(Cl)cc2[C@H](c2cccc(S(=O)(=O)NCCOCCOCCOCCNC(=O)NCCN(CCNC(=O)NCCOCCOCCOCCNS(=O)(=O)c3cccc([C@@H]4CN(C)Cc5c(Cl)cc(Cl)cc54)c3)CCNC(=O)NCCOCCOCCOCCNS(=O)(=O)c3cccc([C@@H]4CN(C)Cc5c(Cl)cc(Cl)cc54)c3)c2)C1 | 126 nM
15 | CN1Cc2c(Cl)cc(Cl)cc2[C@@H](c2cccc(S(=O)(=O)NCCOCCOCCNC(=O)NCCCCNC(=O)NCCOCCOCCNS(=O)(=O)c3cccc([C@@H]4CN(C)Cc5c(Cl)cc(Cl)cc54)c3)c2)C1 | 50.1 nM and < 10000 nM
16 | C/C(=C\c1cc(F)c(Oc2ccc(S(=O)(=O)NCCOCCOCCOCCNC(=O)NCCCCNC(=O)NCCOCCOCCOCCNS(=O)(=O)c3ccc(Oc4c(F)cc(/C=C(\C)C(=O)N=C(N)N)cc4F)cc3)cc2)c(F)c1)C(=O)N=C(N)N | 31.6 nM
17 | CN1Cc2c(Cl)cc(Cl)cc2[C@H](c2cccc(S(=O)(=O)NCCOCCOCCOCCNC(=O)NCCN3CCN(c4nc(N5CCN(CCNC(=O)NCCOCCOCCOCCNS(=O)(=O)c6cccc([C@@H]7CN(C)Cc8c(Cl)cc(Cl)cc87)c6)CC5)nc(N5CCN(CCNC(=O)NCCOCCOCCOCCNS(=O)(=O)c6cccc([C@@H]7CN(C)Cc8c(Cl)cc(Cl)cc87)c6)CC5)n4)CC3)c2)C1 | 200 nM
18 | NCCOCCOCCNS(=O)(=O)c1ccc(O[C@H]2c3cc(Cl)cc(Cl)c3C[C@@H]2N2CCCCC2)cc1 | < 10000 nM
19 | CN1Cc2c(Cl)cc(Cl)cc2[C@H](c2cccc(S(=O)(=O)NCCOCCOCCOCCNC(=O)CN(CCN(CC(=O)O)CC(=O)NCCOCCOCCOCCNS(=O)(=O)c3cccc([C@@H]4CN(C)Cc5c(Cl)cc(Cl)cc54)c3)CC(=O)O)c2)C1 | 10 nM
20 | CN1Cc2c(Cl)cc(Cl)cc2[C@H](c2cccc(S(=O)(=O)NCCOCCOCCOCCNC(=O)CN(CCN(CC(=O)NCCOCCOCCOCCNS(=O)(=O)c3cccc([C@@H]4CN(C)Cc5c(Cl)cc(Cl)cc54)c3)CC(=O)NCCOCCOCCOCCNS(=O)(=O)c3cccc([C@@H]4CN(C)Cc5c(Cl)cc(Cl)cc54)c3)CCN(CC(=O)NCCOCCOCCOCCNS(=O)(=O)c3cccc([C@@H]4CN(C)Cc5c(Cl)cc(Cl)cc54)c3)CC(=O)NCCOCCOCCOCCNS(=O)(=O)c3cccc([C@@H]4CN(C)Cc5c(Cl)cc(Cl)cc54)c3)c2)C1 | 501 nM

Row | SMILES | IC50
21 | CN1Cc2c(Cl)cc(Cl)cc2[C@H](c2cccc(S(=O)(=O)NCCOCCOCCOCCNC(=O)CN(CC(=O)NCCOCCOCCOCCNS(=O)(=O)c3cccc([C@@H]4CN(C)Cc5c(Cl)cc(Cl)cc54)c3)[C@@H]3CCCC[C@H]3N(CC(=O)NCCOCCOCCOCCNS(=O)(=O)c3cccc([C@@H]4CN(C)Cc5c(Cl)cc(Cl)cc54)c3)CC(=O)NCCOCCOCCOCNS(=O)(=O)c3cccc([C@@H]4CN(C)Cc5c(Cl)cc(Cl)cc54)c3)c2)C1 | 316 nM
22 | COCCNC(=O)CN(C)CC(=O)NCCOCCOCCNC(=O)NCCOCCOCCOCCOc1ccc(-c2nc(NC(=N)N)nc3ccc(Cl)cc23)cc1 | 12.6 nM
23 | CCOCCOCCOCCNC(=O)CN(C)CC(=O)NCCOCCOCCOCCNS(=O)(=O)c1ccc(O[C@H]2c3ccccc3C[C@@H]2N2CCCCC2)cc1 | 44.7 nM
24 | CCOCCOCCOCCOCCC(=O)NCCOCCOCCNS(=O)(=O)c1ccc(OC2c3ccccc3C[C@@H]2N2CCCCC2)cc1 (stereo not given in full) | 50.1 nM
25 | CCOCCOCCOCCOCCC(=O)NCCOCCOCCOCCNS(=O)(=O)c1ccc(O[C@H]2c3ccccc3C[C@@H]2N2CCCCC2)cc1 | 35.5 nM
26 | CNC(=O)CN(CCN(CC(=O)O)CC(=O)NCCOCCOCCNC(=O)NCCOCCOCCOCCOc1cccc(-c2nc(NC(=N)N)nc3ccc(Cl)cc23)c1)CC(=O)O | 20 nM
27 | COCCOCCOCCOCCC(=O)NCCOCCOCCOCCN1CCN(c2cccc(-c3nc(NC(=N)N)nc4ccc(Cl)cc34)c2)CC1 | 50.1 nM
28 | CCOCCOCCOCCNC(=O)CN(CCN(CC(=O)O)CC(=O)NCCOCCOCCOCCNS(=O)(=O)c1ccc(O[C@H]2c3ccccc3C[C@@H]2N2CCCCC2)cc1)CC(=O)O | 22.4 nM
29 | COCCNC(=O)CN(C)CC(=O)NCCOCCOCCNC(=O)NCCOCCOCCOCCN1CCN(c2ccc(-c3nc(N=C(N)N)nc4ccc(Cl)cc34)cc2)CC1 | 31.6 nM
30 | COCCNC(=O)CN(C)CC(=O)NCCOCCOCCNC(=O)NCCOCCOCCOCCN1CCN(c2cccc(-c3nc(NC(=N)N)nc4ccc(Cl)cc34)c2)CC1 | 20 nM
31 | CCCOCNC(=O)NCCCCNC(=O)NCCOCCOCCNC(=O)NCCOCCOCCN1CCN(c2cccc(-c3nc(N=C(N)N)nc4ccc(Cl)cc34)c2)CC1 | 25.1 nM
32 | CCOCCOCCOCCNC(=O)[C@H](O)[C@@H](O)C(=O)NCCOCCOCCOCCNS(=O)(=O)c1ccc(O[C@H]2c3ccccc3C[C@@H]2N2CCCCC2)cc1 | 20 nM
33 | CCOCCN(CC(=O)NCCOCCOCCOCCNS(=O)(=O)c1cccc([C@@H]2CN(C)Cc3c(Cl)cc(Cl)cc32)c1)CC(=O)NCCOCCOCCOCCNS(=O)(=O)c1cccc([C@@H]2CCN(C)c3c(Cl)cc(Cl)cc32)c1 | 63.1 nM
34 | CN(CCCNC(=O)NCCOCCOCCOCCNS(=O)(=O)c1cccc([C@@H]2CN(C)Cc3c(Cl)cc(Cl)cc32)c1)CCCNC(=O)NCCOCCOCCOCCNS(=O)(=O)c1cccc([C@@H]2CN(C)Cc3c(Cl)cc(Cl)cc32)c1 | 39.8 nM
35 | CN(CCN(CC(=O)O)CC(=O)NCCOCCOCCNC(=O)NCCOCCOCCOCCN1CCN(c2ccc(-c3nc(N=C(N)N)nc4ccc(Cl)cc34)cc2)CC1)CC(=O)O | 15.8 nM
36 | CN(CCN(CC(=O)O)CC(=O)NCCOCCOCCNC(=O)NCCOCCOCCOCCOc1ccc(-c2nc(NC(=N)N)nc3ccc(Cl)cc23)cc1)CC(=O)O | 10 nM
37 | CCCCNC(=O)NCCOCCOCCNC(=O)NCCOCCOCCOCCOc1ccc(-c2nc(NC(=N)N)nc3ccc(Cl)cc23)cc1 | 25.1 nM
38 | CN(C)CC(=O)NCCOCCOCCNC(=O)NCCOCCOCCN1CCN(c2cccc(-c3nc(NC(=N)N)nc4ccc(Cl)cc34)c2)CC1 | 39.8 nM
39 | CCOCCOCCOCCNC(=O)NCCCCNC(=O)NCCOCCOCCOCCNS(=O)(=O)c1ccc(O[C@H]2c3ccccc3C[C@@H]2N2CCCCC2)cc1 | 39.8 nM
40 | COCCNC(=O)CN(C)CC(=O)NCCOCCOCCNC(=O)NCCOCCOCCOCCOc1cccc(-c2nc(NC(=N)N)nc3ccc(Cl)cc23)c1 | 31.6 nM
